# Test results reported in PubChem BioAssay (NCI).
#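 GI50 marks 50% less growth. TGI: total growth inhibition.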
# Legend:
# Experiment in all cases: DTP human tumour cell line panel, 384-well format
# 786-0 renal = test system: 786-0 renal
# A498 renal = test system: A498 renal
# A549 NSCLC = test system: A549 NSCLC
# ACHN renal = test system: ACHN renal
# BT-549 breast = test system: BT-549 breast
# CAKI-1 renal = test system: CAKI-1 renal
# CCRF-CEM leukemia = test system: CCRF-CEM leukemia
# COLO 205 colon = test system: COLO 205 colon
# DU-145 prostate = test system: DU-145 prostate
# EKVX NSCLC = test system: EKVX NSCLC
# HCC-2998 colon = test system: HCC-2998 colon
# HCT-116 colon = test system: HCT-116 colon
# HCT-15 colon = test system: HCT-15 colon
# HL-60(TB) leukemia = test system: HL-60(TB) leukemia
# HOP-62 NSCLC = test system: HOP-62 NSCLC
# HOP-92 NSCLC = test system: HOP-92 NSCLC
# HS 578T breast = test system: HS 578T breast
# HT29 colon = test system: HT29 colon
# IGROV1 ovarian = test system: IGROV1 ovarian
# K-562 leukemia = test system: K-562 leukemia
# KM12 colon = test system: KM12 colon
# LOX IMVI melanoma = test system: LOX IMVI melanoma
# M14 melanoma = test system: M14 melanoma
# MALME-3M melanoma = test system: MALME-3M melanoma
# MCF7 breast = test system: MCF7 breast
# MDA-MB-231 breast = test system: MDA-MB-231 breast
# MDA-MB-435 melanoma = test system: MDA-MB-435 melanoma
# MDA-MB-468 breast = test system: MDA-MB-468 breast
# MOLT-4 leukemia = test system: MOLT-4 leukemia
# NCI-H226 lung = test system: NCI-H226 lung
# NCI-H23 lung = test system: NCI-H23 lung
# NCI-H322M lung = test system: NCI-H322M lung
# NCI-H460 NSCLC = test system: NCI-H460 NSCLC
# NCI-H522 lung = test system: NCI-H522 lung
# NCI/ADR-RES ovarian = test system: NCI/ADR-RES ovarian
# OVCAR-3 ovarian = test system: OVCAR-3 ovarian
# OVCAR-4 ovarian = test system: OVCAR-4 ovarian
# OVCAR-8 ovarian = test system: OVCAR-8 ovarian
# PC-3 prostate = test system: PC-3 prostate
# RPMI-8226 leukemia = test system: RPMI-8226 leukemia
# RXF 393 renal = test system: RXF 393 renal
# SF-268 CNS = test system: SF-268 CNS
# SF-295 CNS = test system: SF-295 CNS
# SF-539 CNS = test system: SF-539 CNS
# SK-MEL-28 melanoma = test system: SK-MEL-28 melanoma
# SK-MEL-5 melanoma = test system: SK-MEL-5 melanoma
# SK-OV-3 ovarian = test system: SK-OV-3 ovarian
# SN12C renal = test system: SN12C renal
# SNB-19 CNS = test system: SNB-19 CNS
# SNB-75 CNS = test system: SNB-75 CNS
# SR leukemia = test system: SR leukemia
# SW-620 colon = test system: SW-620 colon
# T-47D breast = test system: T-47D breast
# TK-10 renal = test system: TK-10 renal
# U251 glioblastoma = test system: U251 glioblastoma
# UACC-257 melanoma = test system: UACC-257 melanoma
# UACC-62 melanoma = test system: UACC-62 melanoma
# UO-31 renal = test system: UO-31 renal
smiles,measurement,setting,value
CCN(Cc1cc(Nc2nc(C)cn3c(-c4cn[nH]c4)cnc23)sn1)C(C)(C)CO,GI50,786-0 renal,45.7 nM
same,TGI,786-0 renal,370 nM
same,GI50,A498 renal,13.2 nM
same,TGI,A498 renal,299 nM
same,GI50,A549 NSCLC,42.3 nM
same,TGI,A549 NSCLC,1450 nM
same,GI50,ACHN renal,33.4 nM
same,TGI,ACHN renal,10600 nM
same,GI50,BT-549 breast,11.6 nM
same,TGI,BT-549 breast,50.4 nM
same,GI50,CAKI-1 renal,< 10 nM
same,TGI,CAKI-1 renal,42.1 nM
same,GI50,CCRF-CEM leukemia,< 10 nM
same,TGI,CCRF-CEM leukemia,< 10 nM
same,GI50,COLO 205 colon,< 10 nM
same,TGI,COLO 205 colon,100 nM
same,GI50,DU-145 prostate,21.3 nM
same,TGI,DU-145 prostate,1270 nM
same,GI50,EKVX NSCLC,32.1 nM
same,TGI,EKVX NSCLC,1500 nM
same,GI50,HCC-2998 colon,99.9 nM
same,TGI,HCC-2998 colon,362 nM
same,GI50,HCT-116 colon,< 10 nM
same,TGI,HCT-116 colon,1400 nM
same,GI50,HCT-15 colon,23.2 nM
same,TGI,HCT-15 colon,1560 nM
same,GI50,HL-60(TB) leukemia,< 10 nM
same,TGI,HL-60(TB) leukemia,< 10 nM
same,GI50,HOP-62 NSCLC,21 nM
same,TGI,HOP-62 NSCLC,178 nM
same,GI50,HOP-92 NSCLC,32.3 nM
same,TGI,HOP-92 NSCLC,178 nM
same,GI50,HS 578T breast,15.6 nM
same,TGI,HS 578T breast,39 nM
same,GI50,HT29 colon,74.1 nM
same,TGI,HT29 colon,490 nM
same,GI50,IGROV1 ovarian,15.5 nM
same,TGI,IGROV1 ovarian,372 nM
same,GI50,K-562 leukemia,< 10 nM
same,TGI,K-562 leukemia,< 10 nM
same,GI50,KM12 colon,15.4 nM
same,TGI,KM12 colon,1040 nM
same,GI50,LOX IMVI melanoma,27.6 nM
same,TGI,LOX IMVI melanoma,134 nM
same,GI50,M14 melanoma,< 10 nM
same,TGI,M14 melanoma,142 nM
same,GI50,MALME-3M melanoma,26.6 nM
same,TGI,MALME-3M melanoma,1130 nM
same,GI50,MCF7 breast,139 nM
same,TGI,MCF7 breast,1580 nM
same,GI50,MDA-MB-231 breast,30 nM
same,TGI,MDA-MB-231 breast,830 nM
same,GI50,MDA-MB-435 melanoma,71.2 nM
same,TGI,MDA-MB-435 melanoma,242 nM
same,GI50,MDA-MB-468 breast,< 10 nM
same,TGI,MDA-MB-468 breast,< 10 nM
same,GI50,MOLT-4 leukemia,< 10 nM
same,TGI,MOLT-4 leukemia,< 10 nM
same,GI50,NCI-H226 lung,< 10 nM
same,TGI,NCI-H226 lung,152 nM
same,GI50,NCI-H23 lung,40.9 nM
same,TGI,NCI-H23 lung,274 nM
same,GI50,NCI-H322M lung,69.2 nM
same,TGI,NCI-H322M lung,1660 nM
same,GI50,NCI-H460 NSCLC,26.1 nM
same,TGI,NCI-H460 NSCLC,1130 nM
same,GI50,NCI-H522 lung,< 10 nM
same,TGI,NCI-H522 lung,64.6 nM
same,GI50,NCI/ADR-RES ovarian,534 nM
same,TGI,NCI/ADR-RES ovarian,4080 nM
same,GI50,OVCAR-3 ovarian,16.3 nM
same,TGI,OVCAR-3 ovarian,204 nM
same,GI50,OVCAR-4 ovarian,114 nM
same,TGI,OVCAR-4 ovarian,357 nM
same,GI50,OVCAR-8 ovarian,21.3 nM
same,TGI,OVCAR-8 ovarian,188 nM
same,GI50,PC-3 prostate,21 nM
same,TGI,PC-3 prostate,2000 nM
same,GI50,RPMI-8226 leukemia,29.1 nM
same,TGI,RPMI-8226 leukemia,123 nM
same,GI50,RXF 393 renal,< 10 nM
same,TGI,RXF 393 renal,133 nM
same,GI50,SF-268 CNS,14.8 nM
same,TGI,SF-268 CNS,170 nM
same,GI50,SF-295 CNS,102 nM
same,TGI,SF-295 CNS,319 nM
same,GI50,SF-539 CNS,12 nM
same,TGI,SF-539 CNS,57.2 nM
same,GI50,SK-MEL-28 melanoma,169 nM
same,TGI,SK-MEL-28 melanoma,9720 nM
same,GI50,SK-MEL-5 melanoma,118 nM
same,TGI,SK-MEL-5 melanoma,537 nM
same,GI50,SK-OV-3 ovarian,< 10 nM
same,TGI,SK-OV-3 ovarian,41.1 nM
same,GI50,SN12C renal,13.7 nM
same,TGI,SN12C renal,61.3 nM
same,GI50,SNB-19 CNS,53.4 nM
same,TGI,SNB-19 CNS,1070 nM
same,GI50,SNB-75 CNS,10 nM
same,TGI,SNB-75 CNS,36.9 nM
same,GI50,SR leukemia,< 10 nM
same,TGI,SR leukemia,< 10 nM
same,GI50,SW-620 colon,16.3 nM
same,TGI,SW-620 colon,1360 nM
same,GI50,T-47D breast,1050 nM
same,TGI,T-47D breast,11400 nM
same,GI50,TK-10 renal,72.5 nM
same,TGI,TK-10 renal,378 nM
same,GI50,U251 glioblastoma,42.5 nM
same,TGI,U251 glioblastoma,1180 nM
same,GI50,UACC-257 melanoma,1070 nM
same,TGI,UACC-257 melanoma,2310 nM
same,GI50,UACC-62 melanoma,18.7 nM
same,TGI,UACC-62 melanoma,1270 nM
same,GI50,UO-31 renal,64.1 nM
same,TGI,UO-31 renal,1700 nM
